We go through seven compounds from paper PMC8147984, “Effects of Sponge-Derived Alkaloids on Activities of the Bacterial α-D-Galactosidase and Human Cancer Cell α-N-Acetylgalactosaminidase” (Biomedicines, 2021).

Each structure is given as a SMILES string.

Data set [1] concerns the target T1, α-D-galactosidase (α-PsGal) (Pseudoalteromonas sp. KMM 701, UniProt Q19AX0).
T1 sequence (Q19AX0 1-710): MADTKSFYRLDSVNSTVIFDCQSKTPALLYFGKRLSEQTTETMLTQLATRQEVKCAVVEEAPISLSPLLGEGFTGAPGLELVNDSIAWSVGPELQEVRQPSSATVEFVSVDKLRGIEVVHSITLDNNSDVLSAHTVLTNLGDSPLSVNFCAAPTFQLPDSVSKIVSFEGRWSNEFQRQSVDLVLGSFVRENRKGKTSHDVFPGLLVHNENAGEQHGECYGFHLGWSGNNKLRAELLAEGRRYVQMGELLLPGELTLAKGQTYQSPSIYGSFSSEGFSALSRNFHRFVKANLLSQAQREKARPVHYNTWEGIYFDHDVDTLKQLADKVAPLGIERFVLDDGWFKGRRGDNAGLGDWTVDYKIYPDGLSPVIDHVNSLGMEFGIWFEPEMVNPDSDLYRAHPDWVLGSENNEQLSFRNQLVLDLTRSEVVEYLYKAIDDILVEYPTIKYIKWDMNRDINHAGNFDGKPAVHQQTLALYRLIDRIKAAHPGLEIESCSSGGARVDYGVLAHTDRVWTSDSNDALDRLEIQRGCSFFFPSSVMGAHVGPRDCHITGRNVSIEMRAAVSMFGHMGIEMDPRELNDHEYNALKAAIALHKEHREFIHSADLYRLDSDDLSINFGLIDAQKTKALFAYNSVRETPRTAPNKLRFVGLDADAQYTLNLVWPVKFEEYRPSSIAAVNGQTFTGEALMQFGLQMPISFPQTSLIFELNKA
The data set can be described thus: Inhibitory potency on recombinant α-PsGal (residual activity). It counts as biochemical. The following applies: for Residual activity v/v0 (%) of the α-PsGal: preincubated 30 min, 20 °C, pH 7.0. The procedure: The recombinant wild-type α-D-galactosidase (α-PsGal) was produced as described earlier. The plasmid DNA pET-40b(+) containing insertion of the gene from the marine bacterium Pseudoalteromonas sp. KMM 701 encoding α-PsGal was transformed in the Escherichia coli strain Rosetta (DE3). Heterological expression was carried out at optimal conditions as described earlier. Purification of the recombinant […] was performed, according to described procedures. The purification quality was controlled by 12% Laemmli-SDS-PAGE-electrophoresis.
The activity of α-PsGal and α-NaGalase were determined by increasing the amount of p-nithrophenol (pNP). To assay the α-NaGalase activity 0.05 mL of cell extract and 0.1 mL of substrate pNPNA-α-Gal (8.8 mM) in 0.05 M sodium citrate buffer, pH 5.0 were placed in cells of 96-well plate and incubated at 37 °C for 30 min. The mixtures containing 0.05 mL of an enzyme solution and 0.1 mL of a substrate solution (3.3 mM) in 0.05 M sodium phosphate buffer (pH 7.0) were incubated at 20 °C during 5 min for determination of α-PsGal standard activity. The reactions were stopped by the addition of 0.15 mL of 1 M Na2CO3 solution.
Absorbance was measured at 400 nm. Results were read with a computer program Gen5 and treated with ExCel computer program. The unit of standard activity (U) was defined as the amount of the enzyme catalyzing the formation of 1 µmol of p-nitrophenol (ε400 = 18,300 M^−1 cm^−1) per 1 min under the conditions indicated. Specific activity (A) was calculated as the enzyme activity (U) per 1 mg of protein. All calculations were based on reactions with consumption of 10% of the chromogenic substrate. The protein concentrations were estimated by the Bradford method with BSA as a standard. Residual activity (%) was calculated with formula: Residual activity (%) = v/v0 ×100, where v is the initial reaction rate of enzymes under the action of an inhibitor or other factors, v0 is the initial reaction rate of enzymes in the absence of the influence of any factors. Buffer solutions of α-PsGal (0.1 U/mL) and α-NaGalase (0.01 U/mL) were used in the further experiments.
In the control sample, 5 μL of water or 2 μL of EtOH were added to 25 μL of enzyme solution. The enzyme reaction was initiated by adding 120 μL of the substrate pNP-α-Gal (3.3 mM) for α-PsGal or pNPNA-α-Gal (8.8 mM) for α-NaGalase in the respective buffer solutions. After 10 min for α-PsGal or 60 min for α-NaGalase the reaction was stopped by adding 150 μL of 1 M Na2CO3. The amount of pNP was quantified by spectrophotometric detection at 400 nm. Results were evaluated as the percent of residual activity as described above.

In data set [2] the target is T1, α-D-galactosidase (α-PsGal). The data set can be described thus: Irreversibility of α-PsGal inhibition (dialysis experiment). It counts as biochemical. The settings on record: dialysis against buffer for 60 h at 4 °C; activity did not recover. The procedure:
To determine the reversibility of the α-PsGal activity inhibition by alkaloids 2, 3, 8, and 9 15 µL of 0.625 mM aqueous solution of the compounds 2 and 3 or 6 µL of 2.5 mM ethanol solution of the compound 8 and 9 were added to 75 µL of the enzyme solution in 0.05 M sodium phosphate buffer (pH 7.0). After 30 min of the mixture incubation the aliquot of 30 µL was taken and 120 µL of 3.3 mM pNPG solution were added to initiate the reaction; the reaction was stopped by addition of 150 µL of 1M Na2CO3. The α-D-galactosidase activity was determined, as described above. The remaining reaction mixture was dialyzed against 1 L of 0.02 M sodium phosphate buffer (pH 7.0) for 60 h at 4 °C. The buffer was changed 3 times during the dialysis. The enzyme activity was determined, as described above. A sample of α-PsGal treated with H2O or EtOH in the absence of the inhibitor (75 µL of the enzyme solution and 15 µL of H2O or 6 µL of EtOH, respectively) was dialyzed and used as a control for determination of the initial activity. The experiment was carried out in two replicates. The residual activity was calculated as described above.

Data set [3] shares this target. Kind of data set: Kinetic studies of α-PsGal inactivation. It is filed as biochemical. The following applies: pH 7.0, 20 °C; for Ki / kinact: Hill equation fit; for Ki: read-out: Ki, equilibrium inhibition constant; for kinact: read-out: kinact, inactivation rate constant (converted). The procedure: The kinetic parameters Ki and kinact were determined by classic methods. The inactivation of α-PsGal was monitored by incubation of the enzyme with different concentrations of alkaloids in […] sodium phosphate buffer, pH 7.0, at 20 °C in total volume of 30 µL (25 µL and 5 µL of α-PsGal and alkaloids, respectively), which were placed in cells of 96 cells plate. After preincubation of enzyme-inhibitor mixture for 0.5, 5, 10, 15, 20, 25, or 30 min […] the fraction of remaining enzyme activity was measured as a function of time by addition to the inactivation mixture 120 µL of a solution of pNP-α-Gal (3.3 mM). The pseudo-first-order rate constant of inactivation (kobs) was determined for each inactivator concentration as the slope of the v/v0 dependence on the incubation time in semilogarithmic coordinates. The Excel software was used for these calculations. The second order rate constants for the inactivation process were determined by fitting the dependences of the kobs values on the concentration of the inactivators to the Hill or Michaelis–Menten equations. An analysis of the graphs and the choice of models for calculation of inhibition constants (Ki, mM) and inactivation rate constants (kinact, min^–1) were performed with the Origin computer software.

Data set [4] relates to α-NaGalase in human colorectal adenocarcinoma cell line DLD-1. Kind of data set: Residual α-NaGalase activity (expression) in lysate of DLD-1 cells treated with alkaloids. It is filed as cell-based. The settings on record: DLD-1 cells treated with 5 μM for 24 h. The procedure:
DLD-1cells (5.0 × 10^5) were seeded in […] for 24 h at 37 °C in a 5% CO2 incubator. Then the cells were treated with compounds 1–9 at concentrations ranging from 0 to 20 μM for an additional 24 h. Then the cells were harvested using 0.02% EDTA, after this 3 mL of cold 15 mM Tris–HCl (pH 7.0) was added.
Every 3–4 days cells were rinsed in phosphate buffered PBS, detached from the tissue culture flask by 1× trypsin/EDTA solution, harvested with RPMI-1640 medium and centrifuge at 500 rpm for 3 min. The culture media was discarded and cells pellet was resuspended in EDTA/Tris solution and frozen at −80 °C.
Frozen lysates of cancer cells in the 15 mM Tris buffer, pH 7.0 containing 0.02% EDTA, defrosted and sonicated 10 times during 1 min with a break of 1 min. To remove the cellular detritus, the cell homogenate was centrifuged at 4 °C, 10,000 rpm, 30 min. The supernatant proteins were precipitated with 35% ammonium sulfate, kept during four hours at 4 °C to form a pellet. The protein pellet was collected by centrifugation (4 °C, 10,000 rpm, 30 min) and dissolved in 0.05 M sodium citrate buffer, pH 5.0. The supernatant proteins were precipitated with 75% ammonium sulfate, kept overnight at 4 °C to form a pellet. The protein pellet was collected by centrifugation (4 °C, 10,000 rev/min, 30 min) and dissolved in 0.05 M sodium citrate buffer, pH 5.0. Both extracts were dialyzed against the same buffer, centrifuged to separate the insoluble precipitate. α-NaGalase activity was tested in both extracts and was found only in the protein fraction precipitated with 75% ammonium sulfate. This supernatant was used in further work as partly purified enzyme. The purification quality was controlled by 12% Laemmli-SDS-PAGE-electrophoresis.
The activity of α-PsGal and α-NaGalase were determined by increasing the amount of p-nithrophenol (pNP). To assay the α-NaGalase activity 0.05 mL of cell extract and 0.1 mL of substrate pNPNA-α-Gal (8.8 mM) in 0.05 M sodium citrate buffer, pH 5.0 were placed in cells of 96-well plate and incubated at 37 °C for 30 min. The mixtures containing 0.05 mL of an enzyme solution and 0.1 mL of a substrate solution (3.3 mM) in 0.05 M sodium phosphate buffer (pH 7.0) were incubated at 20 °C during 5 min for determination of α-PsGal standard activity. […]
Absorbance was measured at 400 nm. Results were read with a computer program Gen5 and treated with ExCel computer program. […] Specific activity (A) was calculated as the enzyme activity (U) per 1 mg of protein. […] Residual activity (%) was calculated with formula: Residual activity (%) = v/v0 ×100, where v is the initial reaction rate of enzymes under the action of an inhibitor or other factors, v0 is the initial reaction rate of enzymes in the absence of the influence of any factors. […]

The next data set has as its system DLD-1 cells. Kind of data set: MTS cytotoxic activity assay on DLD-1 cells. The following applies: 24 h, dose up to 20 μM. It is filed as cell-based, human. The procedure:
DLD-1 cells (8 × 10^3/200 μL) were seeded in 96-well plates for 24 h at 37 °C in a 5% CO2 incubator. The cells were treated with compounds 1–9 at concentrations ranging from 0 to 20 μM for an additional 24 h. Subsequently, cells were incubated with 15 μL MTS (3-(4,5-dimethylthiazol-2-yl)-5-(3-carboxymethoxyphenyl)-2-(4-sulfophenyl)-2H-tetrazolium) reagent for 3 h, and the absorbance in each well was measured at 490/630 nm using a microplate reader “Power Wave XS” (Bio Tek, Winooski, VT, USA). All the experiments were repeated three times, and the mean absorbance values were calculated. The results are expressed in absorbance by the compound’s treatment compared to the non-treated cells (control 1) and the compounds in medium (control 2). All the experiments were made in triplicate.

Regarding `CNCCc1cn(C)c2c1C(=O)c1c(-c3ccc(O)cc3)c[nH]c1C2=O` [Compound 9, zyzzyanone A], the “inhibitory activity against α-PsGal (in words)” value (“inhibitory activity” below) in data set [1] is “low inhibitory activity”. Moreover, the “Residual activity v/v0 (%) of the α-PsGal” value (“Residual activity v/v0 (%)” for short) in data set [1] (compound concentration 1.48 mM) is given as 0 ^2%. The “irreversibility of α-PsGal inhibition” value in data set [2] was “irreversibly inactivate”. In data set [3], the “n, Hill's coefficient of cooperativity” value was determined as 4.1; the Ki was 105 ± 9 µM; the kinact (commonly the rate constant of inactivation at saturating inhibitor) was 0.000617 s⁻¹. The “n, Hill's coefficient of cooperativity” value in data set [3] (listed as zyzzyanone A (9)) came out at 4.10 ± 1.42.

For the compound `COc1cc2c3c(cc[n+](C)c3c1[O-])NC(=O)C2=O` [Compound 4, aaptanone], the “inhibitory activity” value in data set [1] is “no notable activity”. In data set [1] (compound concentration 1.67 mM), the “Residual activity v/v0 (%)” value is 100 ^1%.

With `CN1CCc2c[nH]c3c2C1=CC(=O)C3=O` [Compound 6, damirone B], the “expression of the enzyme α-NaGalase (residual activity of lysate cell α-NaGalase, control 100%)” value in data set [4] was 52%. Besides, the “inhibitory activity” value in data set [1] is reported as “no notable activity”. Besides, in data set [1] (compound concentration 1.48 mM), the “Residual activity v/v0 (%)” value is 87 ^2%.

Regarding `COc1cc2ccnc3c2c(c1OC)NC=C3` [Compound 1, aaptamine], in the data set with DLD-1 cells, the “cytotoxicity against DLD-1 cells” value is given as “non-cytotoxic”. In addition, the “inhibitory activity” value in data set [1] is recorded as “no notable activity”. In addition, the “Residual activity v/v0 (%)” value in data set [1] (compound concentration 1.67 mM) is given as 79 ^1%.

As for `Cn1cc2c3c1C(=O)C(N)=CC3=[N+](C)CC2` [Compound 7, makaluvamine H], the “expression of the enzyme α-NaGalase (residual activity of lysate cell α-NaGalase, control 100%)” value in data set [4] came to 50%. In addition, the “inhibitory activity” value in data set [1] was “no notable activity”. Besides, the “Residual activity v/v0 (%)” value in data set [1] (compound concentration 1.48 mM) was 67 ^2%.

Take `Cn1cc2c3c1C(=O)C(N/C=C/c1ccc(O)cc1)=CC3=[N+](C)CC2` [Compound 8, makaluvamine G]: the “inhibitory activity” value in data set [1] is given as “low inhibitory activity”. For the same compound, the “Residual activity v/v0 (%)” value in data set [1] (compound concentration 1.48 mM) is 28 ^2%. Besides, the “irreversibility of α-PsGal inhibition” value in data set [2] is “irreversibly inactivate”. Also, in data set [3], the “n, Hill's coefficient of cooperativity” value is recorded as 2.5; the Ki is 411 ± 86 µM; the kinact was 0.00132 s⁻¹. Further, the “n, Hill's coefficient of cooperativity” value in data set [3] (listed as makaluvamine G (8)) is given as 2.5 ± 0.97.

On to `CN1CCc2cn(C)c3c2C1=CC(=O)C3=O` [Compound 5, damirone A], for which the “inhibitory activity” value in data set [1] was “no notable activity”. Further, the “Residual activity v/v0 (%)” value in data set [1] (compound concentration 1.48 mM) is reported as 87 ^2%.
